{"source": "patent US20170247393A1", "about": "“Aminoisoxazoline Compounds as Agonists of Alpha7-Nicotinic Acetylcholine Receptors” (Forum Pharmaceuticals, Inc., priority 2015, published 2017)", "note": "Where a name gives a salt, the structure may show the parent alone.", "data": [{"biological_target": "T1, human 5-HT3 serotonin receptors (Homo sapiens, UniProt P46098)", "T1 sequence (P46098 24-478)": "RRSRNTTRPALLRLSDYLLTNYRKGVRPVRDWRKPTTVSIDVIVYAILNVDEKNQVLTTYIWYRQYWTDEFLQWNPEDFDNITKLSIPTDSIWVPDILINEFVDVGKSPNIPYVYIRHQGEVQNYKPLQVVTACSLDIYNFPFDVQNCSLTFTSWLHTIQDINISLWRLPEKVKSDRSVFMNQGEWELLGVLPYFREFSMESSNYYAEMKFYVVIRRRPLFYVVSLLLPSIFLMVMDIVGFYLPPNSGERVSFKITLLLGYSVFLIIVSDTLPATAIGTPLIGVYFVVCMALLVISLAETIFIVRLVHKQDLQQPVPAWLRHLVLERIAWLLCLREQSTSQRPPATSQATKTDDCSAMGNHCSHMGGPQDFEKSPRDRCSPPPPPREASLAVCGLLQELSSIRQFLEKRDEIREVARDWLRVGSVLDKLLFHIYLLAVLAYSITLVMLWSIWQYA", "test": "biochemical", "format": "binding", "settings": "not given", "units": {"Ki": "µM"}, "values": [{"smiles": "Clc1cc2cnc(NC3=NO[C@@]4(C3)CN3CCC4CC3)cc2cc1Cl", "note": "[(R)-62, (R)—N-(6,7-dichloroisoquinolin-3-yl)-4H-1′-azaspiro[isoxazole-5,3′-bicyclo[2.2.2]octan]-3-amine trifluoroacetate]", "Ki": "> 10"}, {"smiles": "Clc1coc2cc(NC3=NO[C@@]4(C3)CN3CCC4CC3)ccc12", "note": "[(R)-73-1, (R)—N-(3-chlorobenzofuran-6-yl)-4H-1′-azaspiro[isoxazole-5,3′-bicyclo[2.2.2]octan]-3-amine hydrochloride]", "Ki": 4.9}, {"smiles": "Cc1cn2ccc(NC3=NO[C@@]4(C3)CN3CCC4CC3)cc2n1", "note": "[(R)-96, (R)-N-(2-methylimidazo[1,2-a]pyridin-7-yl)-4H-1′-azaspiro[isoxazole-5,3′-bicyclo[2.2.2]octan]-3-amine hydrochloride]", "Ki": "> 10"}, {"smiles": "Cc1cc2cnc(NC3=NO[C@@]4(C3)CN3CCC4CC3)cc2s1", "note": "[(R)-99, (R)-N-(2-methylthieno[3,2-c]pyridin-6-yl)spiro[4H-isoxazole-5,3′-quinuclidine]-3-amine hydrochloride]", "Ki": "> 10"}, {"smiles": "Cc1cc2cnc(NC3=NO[C@@]4(C3)CN3CCC4CC3)cc2o1", "note": "[(R)-100, (R)-N-(2-methylfuro[3,2-c]pyridin-6-yl)spiro[4H-isoxazole-5,3′-quinuclidine]-3-amine hydrochloride]", "Ki": "> 10"}]}, {"biological_target": "T1, human 5-HT3 serotonin receptors", "test": "biochemical", "format": "binding", "settings": "CHO cell membranes expressing human 5-HT3 receptors, [3H]BRL 43694, 120 min at room temperature; read-out: h-5HT3 Ki", "units": {"Ki": "µM"}, "values": [{"smiles": "COc1ccc2cc(NC3=NO[C@@]4(C3)CN3CCC4CC3)ncc2c1", "note": "[(R)-46, (R)—N-(7-methoxyisoquinolin-3-yl)-4H-1′-azaspiro[isoxazole-5,3′-bicyclo[2.2.2]octan]-3-amine hydrochloride]", "Ki": "> 10"}, {"smiles": "COc1ccc2cnc(NC3=NO[C@@]4(C3)CN3CCC4CC3)cc2c1", "note": "[(R)-47, (R)—N-(6-methoxyisoquinolin-3-yl)-4H-1′-azaspiro[isoxazole-5,3′-bicyclo[2.2.2]octan]-3-amine hydrochloride]", "Ki": "> 10"}, {"smiles": "Clc1ccc2nc(NC3=NO[C@@]4(C3)CN3CCC4CC3)ncc2c1", "note": "[(R)-48, (R)—N-(6-chloroquinazolin-2-yl)-4H-1′-azaspiro[isoxazole-5,3′-bicyclo[2.2.2]octan]-3-amine hydrochloride]", "Ki": "> 10"}, {"smiles": "Clc1ccc2cnc(NC3=NO[C@@]4(C3)CN3CCC4CC3)nc2c1", "note": "[(R)-49, (R)—N-(7-chloroquinazolin-2-yl)-4H-1′-azaspiro[isoxazole-5,3′-bicyclo[2.2.2]octan]-3-amine]", "Ki": "> 10"}, {"smiles": "Cc1nc2ccc(NC3=NO[C@@]4(C3)CN3CCC4CC3)cc2s1", "note": "[(R)-50, (R)—N-(2-methylbenzo[d]thiazol-6-yl)-4H-1′-azaspiro[isoxazole-5,3′-bicyclo[2.2.2]octan]-3-amine hydrochloride]", "Ki": 6.2}, {"smiles": "Cc1cc2cnc(NC3=NO[C@@]4(C3)CN3CCC4CC3)nc2s1", "note": "[(R)-52, (R)—N-(6-methylthieno[2,3-d]pyrimidin-2-yl)-4H-1′-azaspiro[isoxazole-5,3′-bicyclo[2.2.2]octan]-3-amine hydrochloride]", "Ki": "> 10"}, {"smiles": "Cc1cc2ccc(NC3=NO[C@@]4(C3)CN3CCC4CC3)nc2s1", "note": "[(R)-53, (R)—N-(2-methylthieno[2,3-b]pyridin-6-yl)-4H-1′-azaspiro[isoxazole-5,3′-bicyclo[2.2.2]octan]-3-amine hydrochloride]", "Ki": "> 10"}, {"smiles": "Clc1cc2ccc(NC3=NO[C@@]4(C3)CN3CCC4CC3)cc2s1", "note": "[(R)-54, (R)—N-(2-chlorobenzo[b]thiophen-6-yl)-4H-F-azaspiroksoxazole-5,3^1-bicyclo[2.2.2]octan1-3-amine hydrochloride]", "Ki": "> 10"}, {"smiles": "Fc1sc2cc(NC3=NO[C@@]4(C3)CN3CCC4CC3)ccc2c1F", "note": "[(R)-55, hydrochloride]", "Ki": 2.2}, {"smiles": "Cc1csc2cc(NC3=NO[C@@]4(C3)CN3CCC4CC3)ccc12", "note": "[(R)-56, (R)—N -(3-methylbenzo[b]thiophen-6-yl)-4H-1′-azaspiro[isoxazole-5,3′-bicyclo[2.2.2]octan]-3-amine hydrochloride]", "Ki": "> 10"}, {"smiles": "Cc1ccc2cc(NC3=NO[C@@]4(C3)CN3CCC4CC3)ncc2c1", "note": "[(R)-59, (R)—N-(7-methylisoquinolin-3-yl)-4H-1′-azaspiro[isoxazole-5,3′-bicyclo[2.2.2]octan]-3-amine hydrochloride]", "Ki": "> 10"}, {"smiles": "Cc1ccc2cnc(NC3=NO[C@@]4(C3)CN3CCC4CC3)cc2c1", "note": "[(R)-60, (R)—N-(6-methylisoquinolin-3-yl)-4H-1′-azaspiro[isoxazole-5,3′-bicyclo[2.2.2]octan]-3-amine hydrochloride]", "Ki": "> 10"}, {"smiles": "Fc1cc2cnc(NC3=NO[C@@]4(C3)CN3CCC4CC3)cc2cc1F", "note": "[(R)-61, (R)—N-(6,7-difluoroisoquinolin-3-yl)-4H-1′-azaspiro[isoxazole-5,3′-bicyclo[2.2.2]octan]-3-amine hydrochloride]", "Ki": "> 10"}, {"smiles": "Clc1cc2ccc(NC3=NO[C@@]4(C3)CN3CCC4CC3)cc2o1", "note": "[(R)-63, (R)—N-(2-chlorobenzofuran-6-yl)-4H-1′-azaspiro[isoxazole-5,3′-bicyclo[2.2.2]octan]-3-amine hydrochloride]", "Ki": "> 10"}, {"smiles": "Cn1ncc2ccc(NC3=NO[C@@]4(C3)CN3CCC4CC3)cc21", "note": "[(R)-64, (R)—N-(1-methyl-1H-indazol-6-yl)-4H-1′-azaspiro[isoxazole-5,3′-bicyclo[2.2.2]octan]-3-amine hydrochloride]", "Ki": "> 10"}, {"smiles": "Cn1ncc2cc(NC3=NO[C@@]4(C3)CN3CCC4CC3)ccc21", "note": "[(R)-65, (R)—N-(1-methyl-1H-indazol-5-yl)-4H-1′-azaspiro[isoxazole-5,3′-bicyclo[2.2.2]octan]-3-amine hydrochloride]", "Ki": "> 10"}, {"smiles": "Cc1noc2cc(NC3=NO[C@@]4(C3)CN3CCC4CC3)ccc12", "note": "[(R)-66, (R)—N -(3-methylbenzo[d]isoxazol-6-yl)-4H-1′-azaspiro[isoxazole-5,3′-bicyclo[2.2.2]octan]-3-amine hydrochloride]", "Ki": 4.5}, {"smiles": "FC(F)(F)c1cc2ccc(NC3=NO[C@@]4(C3)CN3CCC4CC3)cc2s1", "note": "[(R)-67, (R)—N-(2-(trifluoromethyl)benzo[b]thiophen-6-yl)-4H-1′-azaspiro[isoxazole-5,3′-bicyclo[2.2.2]octan]-3-amine hydrochloride]", "Ki": "> 10"}, {"smiles": "Cc1ccc2nc(NC3=NO[C@@]4(C3)CN3CCC4CC3)ncc2c1", "note": "[(R)-70, (R)—N-(6-methylquinazolin-2-yl)spiro[4H-isoxazole-5,3^1-quinuclidine]-3-amine]", "Ki": "> 10"}, {"smiles": "Cc1ccc2cnc(NC3=NO[C@@]4(C3)CN3CCC4CC3)nc2c1", "note": "[(R)-71, (R)—N-(7-methylquinazolin-2-yl)-4H-1′-azaspiro[isoxazole-5,3′-bicyclo[2.2.2]octan]-3-amine hydrochloride]", "Ki": 6.4}, {"smiles": "Cc1nsc2cc(NC3=NO[C@@]4(C3)CN3CCC4CC3)ccc12", "note": "[(R)-72, (R)—N-(3-methylbenzo[d]isothiazol-6-yl)-4H-1′-azaspiro[isoxazole-5,3′-bicyclo[2.2.2]octan]-3-amine hydrochloride]", "Ki": "> 10"}, {"smiles": "Cc1coc2cc(NC3=NO[C@@]4(C3)CN3CCC4CC3)ccc12", "note": "[(R)-74, (R)—N-(3-methylbenzofuran-6-yl)-4H-1′-azaspiro[isoxazole-5,3′-bicyclo[2.2.2]octan]-3-amine hydrochloride]", "Ki": "> 10"}, {"smiles": "Cc1cc2cnc(NC3=NO[C@@]4(C3)CN3CCC4CC3)nc2o1", "note": "[(R)-75, (R)—N-(6-methylfuro[2,3-d]pyrimidin-2-yl)spiro[4H-isoxazole-5,3′-quinuclidine]-3-amine hydrochloride]", "Ki": "> 10"}, {"smiles": "Clc1csc2cc(NC3=NO[C@@]4(C3)CN3CCC4CC3)ccc12", "note": "[(R)-76, (R)—N -(3-chlorobenzo[b]thiophen-6-yl)-4H-1′-azaspiro[isoxazole-5,3′-bicyclo[2.2.2]octan]-3-amine hydrochloride]", "Ki": 2.8}, {"smiles": "Fc1c(Cl)sc2cc(NC3=NO[C@@]4(C3)CN3CCC4CC3)ccc12", "note": "[(R)-78, (R)—N-(2-chloro-3-fluorobenzo[b]thiophen-6-yl)-4H-1′-azaspiro[isoxazole-5,3′-bicyclo[2.2.2]octan]-3-amine hydrochloride]", "Ki": "> 10"}, {"smiles": "c1cnc2ccc(NC3=NO[C@@]4(C3)CN3CCC4CC3)cc2c1", "note": "[(R)-80, (R)—N-(quinolin-6-yl)-41-1-1^1-azaspiro[isoxazole-5,3′-bicyclo[2.2.2]octan]-3-amine hydrochloride]", "Ki": "> 10"}, {"smiles": "Fc1cc2cnc(NC3=NO[C@@]4(C3)CN3CCC4CC3)cc2cc1Cl", "note": "[(R)-81, (R)—N-(6-chloro-7-fluoroisoquinolin-3-yl)-4H-1′-azaspiro[isoxazole-5,3^1-bicyclo[2.2.2]octan]-3-amine hydrochloride]", "Ki": "> 10"}, {"smiles": "Fc1cc2cc(NC3=NO[C@@]4(C3)CN3CCC4CC3)ncc2cc1Cl", "note": "[(R)-82, (R)—N-(7-chloro-6-fluoroisoquinolin-3-yl)-4H-1′-azaspiro[isoxazole-5,3′-bicyclo[2.2.2]octan]-3-amine hydrochloride]", "Ki": "> 10"}, {"smiles": "FC(F)(F)c1ccc2cnc(NC3=NO[C@@]4(C3)CN3CCC4CC3)cc2c1", "note": "[(R)-83, (R)—N-(6-(trifluoromethypisoquinolin-3-yl)-4H-1′-azaspiro[isoxazole-5,3′-bicyclo[2.2.2]octan]-3-amine hydrochloride]", "Ki": "> 10"}, {"smiles": "Clc1cccc2nc(NC3=NO[C@]4(C3)CN3CCC4CC3)sc12", "note": "[(S)-11, (S)—N-(7-chlorobenzo[d]thiazol-2-yl)-4H-1′-azaspiro[isoxazole-5,3′-bicyclo[2.2.2]octan]-3-amine]", "Ki": 0.13}]}, {"biological_target": "T1, human 5-HT3 serotonin receptors", "test": "biochemical", "format": "binding", "settings": "read-out: h-5HT3 Ki", "units": {"Ki": "µM"}, "values": [{"smiles": "c1cnc2cc(NC3=NO[C@@]4(C3)CN3CCC4CC3)ccc2c1", "note": "[(R)-79, (R)—N-(quinolin-7-yl)-4H-1′-azaspiro[isoxazole-5,3′-bicyclo[2.2.2]octan]-3-amine hydrochloride]", "Ki": 5.6}]}]}
